According to patent US4379917A, “6"-(Substituted)-apramycin antibiotic derivatives and intermediates and starting materials therefor” (Eli Lilly and Company, priority 1981, dated 1983):
Values after ≈ are worked out from the molar mass of the structure shown.

Experiments:
Assay in all cases: MIC by standard agar dilution test
Type in all cases: cell-based
[1] = tested on: Pseudomonas aeruginosa X48; conditions: X48, read-out: Minimum Inhibitory Concentration
[2] = tested on: Pseudomonas aeruginosa X528; conditions: X528, read-out: Minimum Inhibitory Concentration
[3] = tested on: Pseudomonas aeruginosa X239; conditions: X239, read-out: Minimum Inhibitory Concentration, Table 1
[4] = tested on: Pseudomonas aeruginosa Ps9; conditions: PS9, read-out: Minimum Inhibitory Concentration
[5] = tested on: Pseudomonas aeruginosa Ps15; conditions: PS15, read-out: Minimum Inhibitory Concentration
[6] = tested on: Pseudomonas aeruginosa Ps25; conditions: PS25, read-out: Minimum Inhibitory Concentration
[7] = tested on: Pseudomonas aeruginosa 4276; conditions: Pseudomonas aeruginosa, 4276, read-out: Minimum Inhibitory Concentration
[8] = tested on: Pseudomonas aeruginosa PI23; conditions: PI23, read-out: Minimum Inhibitory Concentration
[9] = tested on: Pseudomonas aeruginosa SF-2; conditions: SF2, read-out: Minimum Inhibitory Concentration
Serratia marcescens SE2 = conditions: SE2, read-out: Minimum Inhibitory Concentration
Serratia marcescens X99 = conditions: X99, read-out: Minimum Inhibitory Concentration
Serratia marcescens SE3 = conditions: SE3, read-out: Minimum Inhibitory Concentration, Table 1
[10] = tested on: Enterobacter aerogenes EB6; conditions: Klebsiella aerogenes, EB6, read-out: Minimum Inhibitory Concentration
[11] = tested on: Enterobacter cloacae EN453; conditions: EN453, read-out: Minimum Inhibitory Concentration
[12] = tested on: Enterobacter cloacae EB24; conditions: EB24, read-out: Minimum Inhibitory Concentration
Proteus morganii PR1 = conditions: Morganella morganii, PR1, read-out: Minimum Inhibitory Concentration
Proteus morganii PR2 = conditions: Morganella morganii, PR2, read-out: Minimum Inhibitory Concentration
Proteus inconstans PV25 = conditions: Providencia alcalifaciens, PV25, read-out: Minimum Inhibitory Concentration
[13] = tested on: Klebsiella pneumoniae KL2; conditions: KL2, read-out: Minimum Inhibitory Concentration

CN[C@@H]1[C@@H](O[C@H]2O[C@H](CO[Si](C)(C)C(C)(C)C)[C@@H](N)[C@H](O)[C@H]2O)O[C@H]2C[C@@H](N)[C@@H](O[C@H]3[C@H](O)[C@@H](O)[C@H](N)C[C@@H]3N)O[C@@H]2[C@@H]1O [Test Compound 6, 6"-O-(tert-Butyldimethylsilyl)Apramycin]
MIC [1]: > 128 µg/mL | MIC [2]: 64 µg/mL (≈ 97.9 µM) | MIC [3]: 128 µg/mL (≈ 196 µM) | MIC [4]: > 128 µg/mL | MIC [5]: 128 µg/mL (≈ 196 µM) | MIC [6]: 128 µg/mL (≈ 196 µM) | MIC [7]: 128 µg/mL (≈ 196 µM) | MIC [8]: > 128 µg/mL | MIC [9]: 128 µg/mL (≈ 196 µM) | MIC (Serratia marcescens SE2): 64 µg/mL (≈ 97.9 µM) | MIC (Serratia marcescens X99): 32 µg/mL (≈ 48.9 µM) | MIC (Serratia marcescens SE3): 64 µg/mL (≈ 97.9 µM) | MIC [10]: 32 µg/mL (≈ 48.9 µM) | MIC [11]: 32 µg/mL (≈ 48.9 µM) | MIC [12]: 16 µg/mL (≈ 24.5 µM) | MIC (Proteus morganii PR1): 32 µg/mL (≈ 48.9 µM) | MIC (Proteus morganii PR2): 64 µg/mL (≈ 97.9 µM) | MIC (Proteus inconstans PV25): 16 µg/mL (≈ 24.5 µM) | MIC [13]: 32 µg/mL (≈ 48.9 µM)
